The values that follow are results of earlier work, collected in US20220354121A1, “EXTERNALLY HEATED GEL REPELLENT” (Lamplight Farms Incorporated, priority 2021, published 2022).

For the series, the system named is insect. Particulars: release into local atmosphere.

Take `C/C=C/C1C(C(=O)OCc2c(F)c(F)c(COC)c(F)c2F)C1(C)C` (stereo not shown) [metofluthrin]: the “metofluthrin release known to be sufficient for local repellency purposes” value was 7 to 12 mg/h.
